In patent US20060046966A1, “Antipicornaviral compounds and compositions, their pharmaceutical uses, and materials for their synthesis” (Agouron Pharmaceuticals, Inc., priority 1998, published 2006):
Read-outs that look alike come from different tables or passages of the source. Each block holds one compound with its values, some of them ahead of it.

Legend:
[1] = molecular target: T1, rhinovirus 3C protease from HRV serotype-14 (Human rhinovirus 14, UniProt P03303); experiment: Inhibition of rhinovirus 3C protease (FRET assay), serotype 14; type: biochemical; details: HRV serotype-14 3C protease; progress curves in enzyme start experiments; read-out: Protease Inhibition kobs/[I]
T1 construct: Recombinant rhinovirus 3C proteases; made in house
T1 sequence (P03303 1538-1719): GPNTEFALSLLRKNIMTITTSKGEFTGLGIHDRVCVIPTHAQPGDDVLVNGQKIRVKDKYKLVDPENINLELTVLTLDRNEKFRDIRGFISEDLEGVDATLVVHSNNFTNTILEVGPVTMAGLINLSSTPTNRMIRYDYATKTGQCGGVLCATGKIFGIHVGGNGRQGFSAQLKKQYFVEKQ
Experimental: (§1) Stock solutions (50 mM, in DMSO) of various compounds were prepared; dilutions were in the same solvent. Recombinant rhinovirus 3C proteases (see Birch et al., “Purification of recombinant human rhinovirus 14 3C protease expressed in Escherichia coli,” Protein Expr. Pur. 1995, 6(5), 609-618) from serotypes 14, 16, and 2 were prepared by the following standard chromatographic procedures: (1) ion exchange using Q Sepharose Fast Flow from Pharmacia; (2) affinity chromatography using Affi-Gel Blue from Biorad; and (3) sizing using Sephadex G-100 from Pharmacia. Each assay sample contained 2% DMSO, 50 mM tris pH 7.6, 1 mM EDTA, a test compound at the indicated concentration, approximately 1 μM substrate, and 50-100 nM protease. The kobs/I values were obtained from reactions initiated by addition of enzyme rather than substrate. RVP activity was measured in the fluorescence resonance energy transfer assay. The substrate was (N-terminal) DABCYL-(Gly-Arg-Ala-Val-Phe-Gln-Gly-Pro-Val-Gly)-EDANS. In the uncleaved peptide, the EDANS fluorescence was quenched by the proximal DABCYL moiety. When the peptide was cleaved, the quenching was relieved, and activity was measured as an increase in fluorescence signal. In Table 1, all data are for rhinovirus 3C protease from HRV serotype-14 (produced from the infectious cDNA clone constructed by Dr. Robert Rueckert, Institute for Molecular Virology, University of Wisconsin, Madison, Wis.). […] The data in the column designated kobs/[I] were measured from progress curves in enzyme start experiments.

HRV-14 = experiment: Antirhinoviral H1-HeLa cell culture assay, HRV-14; type: cell-based, human rhinovirus; details: Rhinovirus B, HRV14, H1-HeLa, HRV serotype-14, H1-HeLa cells
Experimental: (§2) In this cell protection assay, the ability of compounds to protect cells against HRV infection was measured by the XTT dye reduction method, which is described in Weislow et al., J. Natl. Cancer Inst. 1989, vol. 81, 577-586.
(§3) H1-HeLa cells were infected with HRV-14 at a multiplicity of infection (m.o.i.) of 0.13 (virus particles/cell) or mock-infected with medium only. Infected or mock-infected cells were resuspended at 8×10^5 cells per mL, and incubated with appropriate concentrations of the compounds to be tested. Two days later, XTT/PMS was added to test plates and the amount of formazan produced was quantified spectrophotometrically at 450/650 nm. The EC50 value was calculated as the concentration of compound that increased the percentage of formazan production in compound-treated, virus-infected cells to 50% of that produced by compound-free, mock-infected cells. The 50% cytotoxic dose (CC50) was calculated as the concentration of compound that decreased the percentage of formazan produced in compound-treated, mock-infected cells to 50% of that produced by compound-free, mock-infected cells. The therapeutic index (TI) was calculated by dividing the CC50 value by the EC50 value.
(§4) All strains of human rhinovirus (HRV) for use in this assay were purchased from American Type Culture Collection (ATCC), except for HRV serotype-14 (produced from the infectious cDNA clone constructed by Dr. Robert Rueckert, Institute for Molecular Virology, University of Wisconsin, Madison, Wis.). HRV stocks were propagated and viral assays were performed in H1-HeLa cells (ATCC). Cells were grown in minimal essential medium with 10% fetal bovine serum, available from Life Technologies (Gaithersburg, Md.).
(§5) The compounds were tested against control compounds WIN 51711, WIN 52084, and WIN 54954 (obtained from Sterling-Winthrop Pharmaceuticals), Pirodavir (obtained from Janssen Pharmaceuticals), and Pleconaril (prepared according to the method described in Diana et al., J. Med. Chem 1995, vol. 38, 1355). Antiviral data obtained for the test compounds are shown in Tables 1 and 3, where all data are for HRV serotype-14 unless otherwise noted in parentheses.

HRV (2) = experiment: Antirhinoviral H1-HeLa cell culture assay, HRV serotype 2; type: cell-based, human rhinovirus; details: Human rhinovirus sp., H1-HeLa, H1-HeLa cells, XTT
Experimental: as §2, §3, §4, §5

HRV (1A) = experiment: Antirhinoviral H1-HeLa cell culture assay, HRV serotype 1A; type: cell-based; details: Human rhinovirus sp., H1-HeLa cells, XTT
Experimental: as §2, §3, §4, §5

HRV (89) = experiment: Antirhinoviral H1-HeLa cell culture assay, HRV serotype 89; type: cell-based, human rhinovirus; details: Human rhinovirus sp., H1-HeLa cells, XTT
Experimental: as §2, §3, §4, §5

HRV (16) = experiment: Antirhinoviral H1-HeLa cell culture assay, HRV serotype 16; type: cell-based; details: Human rhinovirus sp., H1-HeLa cells, XTT
Experimental: as §2, §3, §4
(§6) The compounds were tested against control compounds WIN 51711, WIN 52084, and WIN 54954 (obtained from Sterling-Winthrop Pharmaceuticals), Pirodavir (obtained from Janssen Pharmaceuticals), and Pleconaril (prepared according to the method described in Diana et al., J. Med. Chem 1995, vol. 38, 1355). […]

HRV (39) = experiment: Antirhinoviral H1-HeLa cell culture assay, HRV serotype 39; type: cell-based, human rhinovirus; details: Human rhinovirus sp., H1-HeLa cells, XTT
Experimental: as §2, §3, §4, §6

HRV (10) = experiment: Antirhinoviral H1-HeLa cell culture assay, HRV serotype 10; type: cell-based, human rhinovirus; details: Human rhinovirus sp., H1-HeLa, H1-HeLa cells, XTT
Experimental: as §2, §3, §4, §5

HRV (3) = experiment: Antirhinoviral H1-HeLa cell culture assay, HRV serotype 3; type: cell-based, human rhinovirus; details: Human rhinovirus sp., H1-HeLa, H1-HeLa cells, XTT
Experimental: as §2, §3, §4, §6

HRV (9) = experiment: Antirhinoviral H1-HeLa cell culture assay, HRV serotype 9; type: cell-based, human rhinovirus; details: Human rhinovirus sp., H1-HeLa cells, XTT
Experimental: as §2, §3, §4, §6

HRV (12) = experiment: Antirhinoviral H1-HeLa cell culture assay, HRV serotype 12; type: cell-based; details: Human rhinovirus sp., H1-HeLa cells, XTT
Experimental: as §2
as §3, with “value. […]” for “value.”

HRV (13) = experiment: Antirhinoviral H1-HeLa cell culture assay, HRV serotype 13; type: cell-based, human rhinovirus; details: Human rhinovirus sp., H1-HeLa, H1-HeLa cells, XTT
Experimental: as §2, §3, §4, §6

HRV (17) = experiment: Antirhinoviral H1-HeLa cell culture assay, HRV serotype 17; type: cell-based, human rhinovirus; details: Human rhinovirus sp., H1-HeLa cells, XTT
Experimental: as §2, §3, §4, §6

HRV (25) = experiment: Antirhinoviral H1-HeLa cell culture assay, HRV serotype 25; type: cell-based; details: Human rhinovirus sp., H1-HeLa cells, XTT
Experimental: as §2
as §3, with “value. […]” for “value.”

HRV (30) = experiment: Antirhinoviral H1-HeLa cell culture assay, HRV serotype 30; type: cell-based; details: Human rhinovirus sp., H1-HeLa cells, XTT
Experimental: as §2
as §3, with “value. […]” for “value.”

HRV (38) = experiment: Antirhinoviral H1-HeLa cell culture assay, HRV serotype 38; type: cell-based; details: Human rhinovirus sp., H1-HeLa cells, XTT
Experimental: as §2
as §3, with “value. […]” for “value.”

HRV (87) = experiment: Antirhinoviral H1-HeLa cell culture assay, HRV serotype 87; type: cell-based; details: Human rhinovirus sp., H1-HeLa cells, XTT
Experimental: as §2
as §3, with “value. […]” for “value.”

[2] = molecular target: T2, rhinovirus 3C protease, serotype 16 (Human rhinovirus 16, UniProt Q82122); experiment: Inhibition of rhinovirus 3C protease (FRET assay), serotype 16; type: biochemical; details: Rhinovirus Serotype (16) 3C protease; read-out: kobs/I
T2 construct: Recombinant rhinovirus 3C proteases; made in house
T2 sequence (Q82122 1511-1693): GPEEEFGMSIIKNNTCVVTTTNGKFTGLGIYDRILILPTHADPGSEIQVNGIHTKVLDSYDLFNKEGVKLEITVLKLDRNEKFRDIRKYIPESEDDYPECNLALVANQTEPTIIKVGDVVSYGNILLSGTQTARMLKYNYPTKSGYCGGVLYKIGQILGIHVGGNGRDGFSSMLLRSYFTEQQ
Experimental: Stock solutions (50 mM, in DMSO) of various compounds were prepared; dilutions were in the same solvent. Recombinant rhinovirus 3C proteases (see Birch et al., “Purification of recombinant human rhinovirus 14 3C protease expressed in Escherichia coli,” Protein Expr. Pur. 1995, 6(5), 609-618) from serotypes 14, 16, and 2 were prepared by the following standard chromatographic procedures: (1) ion exchange using Q Sepharose Fast Flow from Pharmacia; (2) affinity chromatography using Affi-Gel Blue from Biorad; and (3) sizing using Sephadex G-100 from Pharmacia. Each assay sample contained 2% DMSO, 50 mM tris pH 7.6, 1 mM EDTA, a test compound at the indicated concentration, approximately 1 μM substrate, and 50-100 nM protease. The kobs/I values were obtained from reactions initiated by addition of enzyme rather than substrate. RVP activity was measured in the fluorescence resonance energy transfer assay. The substrate was (N-terminal) DABCYL-(Gly-Arg-Ala-Val-Phe-Gln-Gly-Pro-Val-Gly)-EDANS. In the uncleaved peptide, the EDANS fluorescence was quenched by the proximal DABCYL moiety. When the peptide was cleaved, the quenching was relieved, and activity was measured as an increase in fluorescence signal. […] The data in the column designated kobs/[I] were measured from progress curves in enzyme start experiments.

[3] = molecular target: T3, rhinovirus 3C protease, serotype 2 (Human rhinovirus 2, UniProt P04936); experiment: Inhibition of rhinovirus 3C protease (FRET assay), serotype 2; type: biochemical; details: Rhinovirus Serotype (2) 3C protease; read-out: kobs/I
T3 construct: Recombinant rhinovirus 3C proteases; made in house
T3 sequence (P04936 1508-1690): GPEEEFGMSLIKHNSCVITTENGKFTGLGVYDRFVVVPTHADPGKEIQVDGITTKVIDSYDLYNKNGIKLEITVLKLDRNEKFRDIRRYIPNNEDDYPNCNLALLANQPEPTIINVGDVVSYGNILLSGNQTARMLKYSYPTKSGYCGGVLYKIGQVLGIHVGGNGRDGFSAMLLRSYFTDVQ
Experimental: as §1

[4] = Table 1, XTT dye reduction, read-out: Cell Protection EC50

kinact/KI [1]: 270000 M⁻¹ s⁻¹ | EC50 (HRV-14; [4]): 2 nM | EC50 (HRV-14; Table 3, XTT, read-out: EC50): 2 nM | EC50 (HRV (2)): 4 nM | EC50 (HRV (1A)): 10 nM | EC50 (HRV (89)): 4 nM | EC50 (HRV (16)): 10 nM | EC50 (HRV (39)): 10 nM | EC50 (HRV (10)): 20 nM | EC50 (HRV (3)): 20 nM | EC50 (HRV (9)): 10 nM | EC50 (HRV (12)): 40 nM | EC50 (HRV (13)): 7 nM | EC50 (HRV (17)): 7 nM | EC50 (HRV (25)): 70 nM | EC50 (HRV (30)): 30 nM | EC50 (HRV (38)): 50 nM | EC50 (HRV (87)): 20 nM
Structure (SMILES): CCOC(=O)/C=C/[C@H](C[C@@H]1CCNC1=O)NC(=O)[C@H](Cc1ccc(F)cc1)OC(=O)[C@@H](NC(=O)c1cc(C)on1)C(C)C [Compound C-2, Ethyl-3-{(5′-Methylisoxazole-3′-carbonyl)-L-Val-O-L-(4-F-Phe)-L-((S)-Pyrrol-Ala)}-E-Propenoate]

kinact/KI [1]: 62500 M⁻¹ s⁻¹ | kinact/KI [2]: 16900 M⁻¹ s⁻¹ | kinact/KI [3]: 8000 M⁻¹ s⁻¹ | EC50 (HRV-14; [4]): 380 nM | EC50 (HRV-14; Table 3, XTT, read-out: EC50): 380 nM | melting point: 240 °C (dec.)
Structure (SMILES): CCOC(=O)/C=C/[C@H](CCC(N)=O)NC(=O)[C@H](Cc1ccccc1)NC(=O)[C@@H](NC(=O)OCc1ccccc1)C(C)C [Comparison Compound #3, Ethyl-3-(Cbz-L-Val-L-Phe-L-Gln)-E-Propenoate]
